One experiment deals with MDA-MB-231 (ER(−)) cells. Put plainly: Cell proliferation assay (sulforhodamine B). The conditions noted are these: 500 μM δ-TP or δ-TT; 30 μM lovastatin; 6-day period. In kind it is cell-based, human. On the procedure:
MCF-7 (ER(+)), T47D (ER(+)), and MDA-MB-231 (ER(−)) cell lines were from ATCC. Cell lines were maintained at 37°C in a humidified incubator in a 5% CO2-enriched atmosphere in T-75 flasks. MCF-7, T47D, and MDA-MB-231 cells were grown routinely in phenol red RPMI 1640 medium supplemented with 5% FBS (Gibco BRL, Life Technologies, Cergy Pontoise, France) and with penicillin–streptomycin. Cells were grown for 24 h before treatment in phenol red-free medium containing 5% DCC-FCS. Cells were seeded into 96-well plates at 2000 cells/well. Treatment media (150 μl/well) was added on the following day and replaced at 48-h intervals until the end of the experiment. Cell density was measured via the sulforhodamine B method ([43]) after 0, 2, 4, 6, and 8 days. The absorbance of SRB was measured directly at 490 nm in the 96-well plates using a multiskan® multisoft reader from Labsystem.
Figure 4 Effect of tocol on ER(+) and ER(−) BC cell proliferation and HMG-CoA reductase activity. (A) Effect of δ-tocols on estrogen and non-estrogen-regulated growth of MCF-7, T47D, and MDA-MB-231 cells. […] Cells were also treated with 30 μM lovastatin (Lova) in the presence or absence of 5 mM M, as described in Section “Materials and Methods.” Values are shown as means and vertical bars represent SEM. The data were analyzed by two-way ANOVA, followed by Bonferroni post hoc test. ***P < 0.001, **P < 0.01, and *P < 0.05 in comparison with control or bare-linked specific control. Ns: not significant. (B) Effect of δ-TT on hydroxymethylglutaryl coenzyme A reductase (HMGR) activity in MCF-7, T47D, and MDA-MB-231 cells. […] Data shown are the mean values ± SEM from three independent experiments performed in triplicate.

A further experiment has as its target T1, ERα (Homo sapiens, UniProt P03372).
T1 sequence (P03372 1-595): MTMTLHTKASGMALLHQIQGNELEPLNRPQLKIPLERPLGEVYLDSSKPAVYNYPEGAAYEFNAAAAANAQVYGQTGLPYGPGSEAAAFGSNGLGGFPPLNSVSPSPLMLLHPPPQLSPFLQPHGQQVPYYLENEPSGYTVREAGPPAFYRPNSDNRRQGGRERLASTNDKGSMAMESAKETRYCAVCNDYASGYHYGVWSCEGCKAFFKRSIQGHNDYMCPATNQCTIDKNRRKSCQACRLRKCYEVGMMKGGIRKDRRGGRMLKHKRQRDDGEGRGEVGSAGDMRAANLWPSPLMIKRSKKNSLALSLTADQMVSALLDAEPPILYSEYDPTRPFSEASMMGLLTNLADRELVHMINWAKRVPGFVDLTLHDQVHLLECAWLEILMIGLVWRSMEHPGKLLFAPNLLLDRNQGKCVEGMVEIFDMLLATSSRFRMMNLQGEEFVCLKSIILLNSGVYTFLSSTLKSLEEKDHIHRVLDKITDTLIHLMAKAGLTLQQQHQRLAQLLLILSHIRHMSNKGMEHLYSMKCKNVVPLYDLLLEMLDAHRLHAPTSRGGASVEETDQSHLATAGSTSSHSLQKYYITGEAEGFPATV
The experiment is described as follows: ERE-luciferase reporter assay in HELN-ERα cells. In kind it is cell-based. Also noted: endogenous in cells; host or cells: MCF-7. The conditions noted are these: 500 μM. The source says: MELN cells were established by transfecting ER(+) MCF-7 cells with the ERE-β-globin-tk-Luc-SV-Neo plasmid ([36]). HELN cells were generated by transfection of ER(−) HeLa cells with this plasmid. The HELN-ERα, HELN-ERβ, HELN-ΔAB-ERα, and HELN-ΔAB-ERβ cell lines then underwent a second transfection with the corresponding pSG5-puro plasmids (pSG5-ERα-puro, pSG5-ERβ-puro, pSG5-ΔAB-ERα-puro, and pSG5-ΔAB-ERβ-puro, respectively) and expressed wild-type or mutated ERα or ERβ ([39], [40]). […] Luciferase activity was measured using the luciferase assay reagent (Promega), according to the manufacturer’s instructions. Protein concentrations were measured using the Bradford technique ([41]) to normalize the luciferase activity data. For each condition, average luciferase activity was calculated from the data of three independent wells.
Figure 3 Measurement of estrogenicity of tocols in vitro. […] MCF-7 extracts were analyzed for the presence of ERα by western blotting using GAPDH as a control. […] The ratio of ERα to GAPDH levels in each experiment was determined densitometrically and normalized to control value (taken to be 1). […] The relative expression of TGFα, PR, and Ps2 (TFF1) after 16 h was analyzed by quantitative RT-PCR. […]
For orientation: In a reporter assay the amount or activity of a reporter protein is the signal.

On to `Cc1cc(O)cc2c1OC(C)(CCCC(C)CCCC(C)CCCC(C)C)CC2` (stereo not shown) [δ-TP, δ-tocopherol], for which the “effect on MDA-MB-231 cell proliferation” value with MDA-MB-231 (ER(−)) cells is given as “no impact”. Further, on ERα, the “ER-dependent luciferase activity through ERα” value is given as “activate ER-dependent luciferase activity”.
Take `CC(C)=CCC/C(C)=C/CC/C(C)=C/CC[C@]1(C)CCc2cc(O)cc(C)c2O1` [δ-TT, δ-tocotrienol]: the “effect on MDA-MB-231 cell proliferation” value with MDA-MB-231 (ER(−)) cells is “inhibited the proliferation”. The “ER-dependent luciferase activity through ERα” value on ERα is “activate ER-dependent luciferase activity”.

The values above are taken from article PMC4700278, “Molecular and Biochemical Analysis of the Estrogenic and Proliferative Properties of Vitamin E Compounds” (Frontiers in Oncology, 2016).
